Experimental data taken from ChEMBL document CHEMBL1799957, “Cerebrosides and 2-pyridone alkaloids from the halotolerant fungus Penicillium chrysogenum grown in a hypersaline medium” (J Nat Prod, 2011).
pIC50: −log10 of the molar value. ≈ marks a conversion by molar mass, not a printed value.

How the values were obtained:
P388 = test: Cytotoxicity against mouse P388 cells by MTT assay; type: functional, cell-based
HeLa = test: Cytotoxicity against human HeLa cells by MTT assay; type: functional, cell-based
Staphylococcus aureus = test: Antimicrobial activity against Staphylococcus aureus by agar dilution method; type: functional
Escherichia coli = test: Antimicrobial activity against Escherichia coli by agar dilution method; type: functional
Klebsiella aerogenes = test: Antimicrobial activity against Enterobacter aerogenes by agar dilution method; type: functional
Bacillus subtilis = test: Antimicrobial activity against Bacillus subtilis by agar dilution method; type: functional
Pseudomonas aeruginosa = test: Antimicrobial activity against Pseudomonas aeruginosa by agar dilution method; type: functional
Candida albicans = test: Antimicrobial activity against Candida albicans by agar dilution method; type: functional
HL-60 = test: Cytotoxicity against human HL60 cells by MTT assay; type: functional, cell-based
A549 = test: Cytotoxicity against human A549 cells by SRB assay; type: functional, cell-based

With CCCCCCCCCCCCCCC/C=C/[C@@H](O)C(=O)N[C@@H](CO[C@@H]1O[C@H](CO)[C@@H](O)[C@H](O)[C@H]1O)[C@H](O)/C=C/CC/C=C(\C)CCCCC [CHRYSOGESIDE C] the pIC50 (P388) was less than 4.30, the pIC50 (HeLa) was less than 4.30 and the MIC (Staphylococcus aureus) was greater than 150 µM. The MIC (Escherichia coli) was greater than 150 µM, the MIC (Klebsiella aerogenes) was greater than 150 µM and the MIC (Bacillus subtilis) was greater than 150 µM. It also gave an MIC (Pseudomonas aeruginosa) greater than 150 µM and an MIC (Candida albicans) greater than 150 µM.

Work on CCCCCCCCCCCCCCC/C=C/[C@@H](O)C(=O)N[C@@H](CO[C@@H]1O[C@H](CO)[C@@H](O)[C@H](O)[C@H]1O)[C@H](O)/C=C/CC/C=C(\C)CCCCCC [CHRYSOGESIDE B] yielded a pIC50 (P388) of less than 4.30, a pIC50 (HeLa) of less than 4.30 and an MIC (Staphylococcus aureus) greater than 150 µM. For the same compound, the MIC (Escherichia coli) was greater than 150 µM, the MIC (Klebsiella aerogenes) was 1.72 µM (≈ 1.25 µg/mL) and the MIC (Bacillus subtilis) was greater than 150 µM. For the same compound, the MIC (Pseudomonas aeruginosa) was greater than 150 µM and the MIC (Candida albicans) was greater than 150 µM.

With CCCCCCCCCCCCCCCCC[C@@H](O)C(=O)N[C@@H](CO[C@@H]1O[C@H](CO)[C@@H](O)[C@H](O)[C@H]1O)[C@H](O)/C=C/CC/C=C(\C)CCCCCC [CHRYSOGESIDE E] the pIC50 (P388) was less than 4.30, the pIC50 (HeLa) was less than 4.30 and the MIC (Staphylococcus aureus) was greater than 150 µM. The MIC (Escherichia coli) was greater than 150 µM, the MIC (Klebsiella aerogenes) was greater than 150 µM and the MIC (Bacillus subtilis) was greater than 150 µM. It also gave an MIC (Pseudomonas aeruginosa) greater than 150 µM and an MIC (Candida albicans) greater than 150 µM.

For CCC[C@H](O)c1ccc(=O)[nH]c1C [CHRYSOGEDONE A], the pIC50 (HL-60) was less than 4.30, the pIC50 (A549) was less than 4.30 and the MIC (Staphylococcus aureus) was greater than 150 µM. For the same compound, the MIC (Escherichia coli) was greater than 150 µM, the MIC (Klebsiella aerogenes) was greater than 150 µM and the MIC (Bacillus subtilis) was greater than 150 µM. It also gave an MIC (Pseudomonas aeruginosa) greater than 150 µM and an MIC (Candida albicans) greater than 150 µM.

Compound CCC[C@H](O)c1ccc(=O)[nH]c1CO [CHRYSOGEDONE B] has a pIC50 (HL-60) of less than 4.30, a pIC50 (A549) of less than 4.30 and an MIC (Staphylococcus aureus) greater than 150 µM. For the same compound, the MIC (Escherichia coli) was greater than 150 µM, the MIC (Klebsiella aerogenes) was greater than 150 µM and the MIC (Bacillus subtilis) was greater than 150 µM. The MIC (Pseudomonas aeruginosa) was greater than 150 µM and the MIC (Candida albicans) was greater than 150 µM.

CCCCCCC/C=C\CC/C=C/[C@@H](O)[C@H](CO[C@@H]1O[C@H](CO)[C@@H](O)[C@H](O)[C@H]1O)NC(=O)[C@H](O)/C=C/CCCCCCCCCCCCCC [CHRYSOGESIDE A] gave a pIC50 (P388) of less than 4.30, a pIC50 (HeLa) of less than 4.30 and an MIC (Staphylococcus aureus) greater than 150 µM. The MIC (Escherichia coli) was greater than 150 µM, the MIC (Klebsiella aerogenes) was greater than 150 µM and the MIC (Bacillus subtilis) was greater than 150 µM. For the same compound, the MIC (Pseudomonas aeruginosa) was greater than 150 µM and the MIC (Candida albicans) was greater than 150 µM.

Compound CCCCCCCCCCCCCCC/C=C/[C@@H](O)C(=O)N[C@@H](CO[C@@H]1O[C@H](CO)[C@@H](O)[C@H](O)[C@H]1O)[C@H](O)/C=C/CC/C=C(\C)CCCCCCCC [CHRYSOGESIDE D] has a pIC50 (P388) of less than 4.30, a pIC50 (HeLa) of less than 4.30 and an MIC (Staphylococcus aureus) greater than 150 µM. It also gave an MIC (Escherichia coli) greater than 150 µM, an MIC (Klebsiella aerogenes) greater than 150 µM and an MIC (Bacillus subtilis) greater than 150 µM. The MIC (Pseudomonas aeruginosa) was greater than 150 µM and the MIC (Candida albicans) was greater than 150 µM.
